These results are taken from patent US20160355530A1, “HEPATITIS C INHIBITORS AND USES THEREOF” (AbbVie Inc., priority 2010, published 2016).

Like-named read-outs stand apart in the source and are kept apart here.

For experiment [1], the system named is HCV 1b-Con1 subgenomic replicon. As to the kind of experiment: Stable replicon cell culture assay (luciferase), 1b-Con1; 5% FBS, optionally 40% human plasma. The class given is cell-based, HCV genotype 1b. Conditions: Hepatitis C virus. Background: A replicon is a self-replicating genome or part of one, used to study replication in cells.
Experiment [2] deals with T1, HCV NS5B polymerase 1b Rice (Hepatitis C virus genotype 1b, UniProt Q9WMX2).
T1 construct: six-histidine tag; made in house; host or cells: E. coli
As to the kind of experiment: HCV NS5B polymerase enzymatic inhibition assay, strain 1b Rice. The class given is biochemical, HCV genotype 1b. Conditions: enzyme. The protocol: Purified HCV NS5B polymerase enzymes were used for polymerase inhibition assays. All recombinant HCV polymerases contained the first 570 amino acids of the 591 amino acid native protein sequence and a six-histidine tag at the N-terminus or C-terminus to facilitate purification by affinity chromatography. The DNA nucleotide sequence for the HCV polymerase 1b BK strain was codon optimized for expression in E. coli. A synthetic gene was prepared from a series of overlapping oligonucleotides that were filled in using a DNA polymerase and amplified by PCR. The patient isolate HCV polymerases were cloned by RT-PCR methods using HCV RNA extracted from the serum of infected subjects obtained from ProMedDx and BioCollections (genotypes 2a, 2b, 3a, and 4a). Laboratory strains were cloned from plasmid DNA (1a-H77 or 1a-H77-C316Y) or from existing replicon cells (1b Rice). In all cases the amplified DNA was cloned into a protein expression vector (typically a pET vector from Novagen) and then multiple clones were sequenced to identify one whose NS5B sequence agreed with the population sequence. This sequence-confirmed clone was then transfected into E. coli for protein expression and purification. E. coli cultures were grown to a maximum optical density (OD) of 2-3 and then induced with 0.4 mM isopropyl beta-D-thiogalactopyranoside (IPTG) and grown for 20 hours at 20° C.
Proteins were purified using nickel affinity chromatography, and additional column steps were added including, ion exchange, size exclusion, hydrophobic ion, and poly-U affinity chromatography, as needed, depending on the sample being purified. The template RNA used in the polymerase enzymatic assay was a 2.1 kb construct that corresponds to the 3′-end of an HCV genotype 1b negative strand RNA.
The reaction was initiated by the addition of 20 μM CTP, 20 μM ATP, 0.284 μM (0.5 μCi) of 5,6-[^3H] UTP, 5 nM template RNA and 0.1 U/μL RNase inhibitor (RNasin, Promega), and allowed to proceed for three hours at 30° C. The final reaction volume was 50 μL. The reaction was terminated by the addition of 50 uL of 4 mM spermine in 10 mM Tris-HCl, pH 7.5, 1 mM EDTA. The quenched reaction was allowed to incubate for at least 15 minutes at room temperature, and then the precipitated RNA was captured by filtration through a glass fiber filter (GF/B, Millipore) in a 96 well format. The filter plate was washed five times with 200 μL of 2 mM spermine, 10 mM Tris-HCl, pH 8.0, 1 mM EDTA, and two times with ethanol. After drying thoroughly in air, 30 μL of Microscint-20 scintillation cocktail (Perkin Elmer) was added to each well, and the retained cpm were determined by scintillation counting. IC50 values were determined by nonlinear regression.
% Inhibition=100*[[I]/([I]+[IC50])] equation 1
V=kcat[S]/2(Km+[S])*(sqrt((IC50+I−E)̂2+(4*IC50*E))−(IC50+I−E)) equation 2

In experiment [3] the test system is HCV 1a-H77 transient subgenomic replicon in Huh-7 derived cell line. As to the kind of experiment: microbe, parasite or virus in culture. The class given is cell-based, HCV genotype 1a. Conditions: Hepatitis C virus, Huh-7; transient replicon, 5% FBS; read-out: Transient Replicon 1a H77 5% FBS EC50. The procedure, abridged:
(§1)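 Subgenomic replicon RNA (no Neo gene) electroporated into Huh-7-derived cells, plated at 5×10^3 cells/well; a 4 h plate gauged transfection efficiency. Cells exposed to 3-fold compound dilutions (0.5% DMSO) for 4 days at 37° C, then lysed for luciferase readout; EC50 calculated.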

Experiment [4] has as its system HCV 1a-H77-C316Y transient subgenomic replicon in Huh-7 derived cell line. As to the kind of experiment: microbe, parasite or virus in culture. The class given is cell-based, HCV genotype 1a. In outline:
as §1

Experiment [5] concerns chimeric replicon with genotype 3a NS5B. In words: microbe, parasite or virus in culture. The class given is cell-based, HCV genotype 3a. Conditions: Hepatitis C virus, read-out: 3a chimera 5% FBS EC50.
Experiment [6] relates to chimeric replicon with genotype 4a NS5B. As to the kind of experiment: microbe, parasite or virus in culture. The class given is cell-based, HCV genotype 4a. Conditions: Hepatitis C virus, read-out: 4a chimera 5% FBS EC50.
Experiment [7] has as its system HCV 1a-H77 subgenomic replicon. As to the kind of experiment: microbe, parasite or virus in culture. The class given is cell-based, HCV genotype 1a. Conditions: Hepatitis C virus, stable replicon.
Experiment [8] deals with HCV 1a-H77 C316Y mutant subgenomic replicon. In words: Stable replicon cell culture assay (luciferase), 1a-H77-C316Y mutant. The class given is cell-based, HCV genotype 1a. Conditions: for EC50: Hepatitis C virus, read-out: Stable Replicon 1a H77-C316Y 5% FBS EC50; for Stable Replicon Fold Resistance C316Y/1a: ratio of stable replicon EC50s, C316Y / 1a H77.
Experiment [9] concerns the target T2, HCV NS5B polymerase 1b BK strain (Hepatitis C virus genotype 1b, UniProt P26663).
T2 construct: six-histidine tag; made in house; host or cells: E. coli
In words: HCV NS5B polymerase enzymatic inhibition assay, strain 1b BK. The class given is biochemical. Conditions: enzyme, strain 1b BK; read-out: HCV Polymerase Strain 1b BK IC50. The procedure, abridged:
(§2)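 Recombinant NS5B (residues 1–570, His-tagged, E. coli-expressed) copied 5 nM of a 2.1 kb HCV 1b negative-strand 3′-end RNA template with 20 μM CTP, 20 μM ATP and 0.284 μM [3H]UTP for 3 h at 30 °C. Spermine-precipitated RNA was filter-captured and counted, and IC50 was fitted by nonlinear regression.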

In experiment [10] the target is T3, HCV NS5B polymerase 1a-H77-C316Y (Hepatitis C virus genotype 1a, UniProt P27958, C2736Y).
T3 construct: six-histidine tag; made in house; host or cells: E. coli
In words: biochemical. Set-up: species or system HCV genotype 1a. The procedure, abridged: as §2

The test system of experiment [11] is HCV NS5B polymerase 1a-H77-C316Y. In words: biochemical. Conditions: ratio of enzyme IC50s, 1a H77-C316Y / 1a H77. Set-up: species or system HCV genotype 1a. In outline: as §2
Experiment [12] concerns the target T4, HCV NS5B polymerase 1a-H77 (Hepatitis C virus genotype 1a, UniProt P27958).
T4 construct: six-histidine tag; made in house; host or cells: E. coli
In words: biochemical. Set-up: species or system HCV genotype 1a. Conditions: enzyme, strain 1a H77; read-out: HCV Polymerase Strain 1a H77 IC50. The procedure, abridged: as §2

The test system of experiment [13] is chimeric replicon with genotype 2b NS5B. As to the kind of experiment: microbe, parasite or virus in culture. The class given is cell-based, HCV genotype 2b. Conditions: Hepatitis C virus, read-out: 2b chimera 5% FBS EC50.
The subject of experiment [14] is chimeric replicon with 2a-J6CF-derived NS5B. As to the kind of experiment: microbe, parasite or virus in culture. Conditions: Hepatitis C virus, read-out: 2a chimera 5% FBS EC50. The class given is cell-based, HCV genotype 2a.
[15] abbreviates: strain 1b Con1, 5% FBS + 40% human plasma, read-out: 1b Con1 5% FBS + 40% Human Plasma EC50.
Where [16] appears, read: strain 1b Con1, 5% FBS, no human plasma, read-out: 1b Con1 5% FBS EC50.
[17] abbreviates: strain 1b Con1, 5% FBS, read-out: 1b Con1 5% FBS EC50.
[18] abbreviates: 5% FBS, absence of human plasma, read-out: Stable Replicon 1a H77 5% FBS EC50.
Setting [19] is: strain 1a H77, 5% FBS + 40% human plasma, read-out: 1a H77 5% FBS + 40% Human Plasma EC50.
The mark [20] stands for this setting: strain 1a H77, 5% FBS, no human plasma, read-out: 1a H77 5% FBS EC50.
[21] abbreviates: strain 1a H77, 5% FBS, read-out: 1a H77 5% FBS EC50.

T4 sequence (P27958 2421-2990): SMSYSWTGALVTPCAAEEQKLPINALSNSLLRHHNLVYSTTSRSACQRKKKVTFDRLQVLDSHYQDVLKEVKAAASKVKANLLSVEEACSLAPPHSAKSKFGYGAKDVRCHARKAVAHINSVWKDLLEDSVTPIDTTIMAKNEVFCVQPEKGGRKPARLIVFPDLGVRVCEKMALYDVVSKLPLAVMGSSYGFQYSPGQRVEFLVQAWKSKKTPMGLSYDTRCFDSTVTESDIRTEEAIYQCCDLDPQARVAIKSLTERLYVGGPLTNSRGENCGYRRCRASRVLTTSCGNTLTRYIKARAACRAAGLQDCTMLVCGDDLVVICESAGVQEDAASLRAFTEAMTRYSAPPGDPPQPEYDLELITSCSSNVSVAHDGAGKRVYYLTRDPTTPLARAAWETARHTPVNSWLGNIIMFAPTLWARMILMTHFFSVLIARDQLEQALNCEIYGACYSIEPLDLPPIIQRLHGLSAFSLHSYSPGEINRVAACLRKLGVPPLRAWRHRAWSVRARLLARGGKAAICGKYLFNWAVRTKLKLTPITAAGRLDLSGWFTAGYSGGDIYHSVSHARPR
T2 sequence (P26663 2420-2989): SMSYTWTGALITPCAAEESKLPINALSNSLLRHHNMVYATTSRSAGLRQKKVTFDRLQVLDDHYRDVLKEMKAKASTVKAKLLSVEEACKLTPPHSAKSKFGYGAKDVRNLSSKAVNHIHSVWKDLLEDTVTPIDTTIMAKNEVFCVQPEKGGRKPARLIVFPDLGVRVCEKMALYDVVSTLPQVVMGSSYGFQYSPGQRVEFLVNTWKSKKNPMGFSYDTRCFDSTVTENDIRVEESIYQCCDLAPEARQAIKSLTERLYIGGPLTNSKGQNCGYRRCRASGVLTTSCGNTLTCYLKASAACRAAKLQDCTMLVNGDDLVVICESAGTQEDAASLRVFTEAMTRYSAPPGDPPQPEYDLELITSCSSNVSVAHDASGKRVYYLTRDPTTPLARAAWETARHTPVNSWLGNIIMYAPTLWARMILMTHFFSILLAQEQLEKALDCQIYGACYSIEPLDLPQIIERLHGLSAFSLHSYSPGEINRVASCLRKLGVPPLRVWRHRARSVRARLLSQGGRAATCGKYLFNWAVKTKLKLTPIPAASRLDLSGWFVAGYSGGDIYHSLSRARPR
T3 sequence (P27958 2421-2990 C2736Y): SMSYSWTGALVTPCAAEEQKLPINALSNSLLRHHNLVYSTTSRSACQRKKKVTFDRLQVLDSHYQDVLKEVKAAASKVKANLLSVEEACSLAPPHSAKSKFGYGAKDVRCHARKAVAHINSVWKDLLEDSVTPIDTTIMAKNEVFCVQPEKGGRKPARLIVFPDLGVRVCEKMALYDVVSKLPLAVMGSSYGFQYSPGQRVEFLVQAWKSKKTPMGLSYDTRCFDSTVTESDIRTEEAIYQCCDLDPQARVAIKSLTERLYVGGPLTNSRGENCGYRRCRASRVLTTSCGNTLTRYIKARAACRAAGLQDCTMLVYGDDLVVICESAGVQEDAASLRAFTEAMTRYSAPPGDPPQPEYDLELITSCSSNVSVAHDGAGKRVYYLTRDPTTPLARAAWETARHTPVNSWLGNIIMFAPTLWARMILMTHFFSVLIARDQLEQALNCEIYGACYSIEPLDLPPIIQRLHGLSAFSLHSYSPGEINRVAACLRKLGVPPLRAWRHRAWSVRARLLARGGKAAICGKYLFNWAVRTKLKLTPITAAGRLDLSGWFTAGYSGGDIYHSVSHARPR

Turning to `CC(C)CCN(c1cc2oc(-c3ccc(Nc4ccccc4)cc3)c(-c3ncc[nH]3)c2cc1C1CC1)S(C)(=O)=O` [Example 18, N-[2-(4-anilinophenyl)-5-cyclopropyl-3-(1H-imidazol-2-yl)-1-benzofuran-6-yl]-N-(3-methylbutyl)methanesulfonamide], the EC50 (in general, the concentration giving half of the maximal effect) in [1] (setting [15]) came to 602 nM; in experiment [1] (setting [16]), 9.5 nM; in experiment [1] (setting [17]), 9.5 nM; in experiment [3], 0.7 nM; in experiment [4] (Hepatitis C virus, Huh-7, read-out: Transient Replicon 1a H77-C316Y 5% FBS EC50) it was 0.3 nM; in experiment [5], 12.3 nM. Further, the concentration giving a half-maximal response (EC50) in experiment [6] turned out to be 9.4 nM; in [7] (setting [18]), 5.4 nM; in experiment [7] (setting [19]), 234 nM; in [7] (setting [20]), 5.4 nM; in experiment [7] (setting [21]) it was 5.4 nM; in experiment [8] it was 3.8 nM. Moreover, the EC50 in experiment [13] amounted to 13 nM. Besides, the half-inhibitory concentration (IC50) (as a rule, the point on the concentration scale where inhibition reaches its midpoint) was found to be 30.4 nM in experiment [2], 85.6 nM in [9], 101 nM in experiment [10] and 25.8 nM in experiment [12]. In experiment [4] (ratio of transient replicon EC50s, C316Y / 1a H77), the “Transient Replicon Fold Resistance C316Y/1a” value was 0.4 fold. For the same molecule, the “Stable Replicon Fold Resistance C316Y/1a” value in experiment [8] came out at 0.711 fold. Further, in [11], the “C316Y/1a Fold Resistance” value came out at 4 fold.
Turning to `COc1ccc(-c2nn3ccc(-c4cc(C(=O)NC5(c6ccccc6)CC5)ccc4C)cc3c2C2=NOCCN2)cc1` [Example 19, 3-[3-(5,6-dihydro-4H-1,2,4-oxadiazin-3-yl)-2-(4-methoxyphenyl)pyrazolo[1,5-a]pyridin-5-yl]-4-methyl-N-(1-phenylcyclopropyl)benzamide], the EC50 was found to be 140 nM in [14]; 86.8 nM in experiment [1] (setting [15]); 6.7 nM in experiment [1] (setting [16]); 6.7 nM in experiment [1] (setting [17]); 20.2 nM in [6]; 33.2 nM in experiment [7] (setting [18]). The EC50 in [7] (setting [19]) worked out at 444 nM; in experiment [7] (setting [20]), 33.2 nM; in [7] (setting [21]), 33.2 nM; in experiment [8], 1320 nM. In addition, the half-inhibitory concentration (IC50) was 7.2 nM in experiment [2], 150 nM in [9], 457 nM in [10] and 4 nM in experiment [12]. Besides, in [8], the “Stable Replicon Fold Resistance C316Y/1a” value was 41.0 fold. In addition, in experiment [11], the “C316Y/1a Fold Resistance” value stood at 115 fold.
